Data on three molecules can be found in patent US20200239530A1, “COMPOUNDS AND METHODS OF MODULATING PROTEIN DEGRADATION” (Vividion Therapeutics, Inc., priority 2017, published 2020).

Structures are written as SMILES. Where two headings read alike, the source gives them in different places.

Holding throughout (experiment): Cysteine liganding, probe competition
Holding throughout (assay type): binding

One experiment addresses T1, UniProt Q9C026 (Homo sapiens, UniProt Q9C026).
T1 construct: 200 μL of lysate containing 5 mg/ml proteome was treated with 2 μL of 100× compound stock; endogenous in cells
From the text:
(§1) The following 96-well sample prep protocol was used for sample preparation.

A further experiment deals with T2, UniProt Q9BWF2 (Homo sapiens, UniProt Q9BWF2).
T2 construct: 200 μL of lysate containing 5 mg/ml proteome was treated with 2 μL of 100× compound stock; endogenous in cells
T2 sequence (Q9BWF2 1-469): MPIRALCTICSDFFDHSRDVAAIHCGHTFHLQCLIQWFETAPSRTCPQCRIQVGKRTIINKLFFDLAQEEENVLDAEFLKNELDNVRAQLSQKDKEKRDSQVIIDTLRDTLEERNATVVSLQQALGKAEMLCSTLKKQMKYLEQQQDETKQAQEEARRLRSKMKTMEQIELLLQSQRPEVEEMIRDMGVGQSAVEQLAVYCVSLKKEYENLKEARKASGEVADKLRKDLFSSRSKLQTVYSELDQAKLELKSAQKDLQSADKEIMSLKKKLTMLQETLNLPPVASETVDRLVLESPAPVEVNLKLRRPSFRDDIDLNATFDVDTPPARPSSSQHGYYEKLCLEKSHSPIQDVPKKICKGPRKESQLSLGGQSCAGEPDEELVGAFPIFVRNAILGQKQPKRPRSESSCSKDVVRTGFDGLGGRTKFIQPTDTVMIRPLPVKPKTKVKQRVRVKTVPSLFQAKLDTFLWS
From the text: as §1

A further experiment concerns the target T3, UniProt Q6VVB1 (Homo sapiens, UniProt Q6VVB1).
T3 construct: Cells were resuspended in cold PBS on ice and sonicated with a probe sonicator to achieve lysis; endogenous in cells
From the text: as §1

Another experiment has as its target T4, UniProt O14543 (Homo sapiens, UniProt O14543).
T4 construct: 200 μL of lysate containing 5 mg/ml proteome was treated with 2 μL of 100× compound stock; endogenous in cells
From the text: as §1

Another experiment concerns the target T5, UniProt Q9H0A6 (Homo sapiens, UniProt Q9H0A6).
T5 construct: 200 μL of lysate containing 5 mg/ml proteome was treated with 2 μL of 100× compound stock; endogenous in cells
From the text: as §1

The next experiment deals with T6, UniProt Q86SE9 (Homo sapiens, UniProt Q86SE9).
T6 construct: 200 μL of lysate containing 5 mg/ml proteome was treated with 2 μL of 100× compound stock; endogenous in cells
From the text: as §1

The next experiment has as its target T7, UniProt Q12899 (Homo sapiens, UniProt Q12899).
T7 construct: 200 μL of lysate containing 5 mg/ml proteome was treated with 2 μL of 100× compound stock; endogenous in cells
From the text: as §1

The next experiment has as its target T8, UniProt Q9UJ41 (Homo sapiens, UniProt Q9UJ41).
T8 construct: 200 μL of lysate containing 5 mg/ml proteome was treated with 2 μL of 100× compound stock; endogenous in cells
From the text: as §1

Another experiment concerns the target T9, UniProt Q9HCI7 (Homo sapiens, UniProt Q9HCI7).
T9 construct: Cells were resuspended in cold PBS on ice and sonicated with a probe sonicator to achieve lysis; endogenous in cells
T9 sequence (Q9HCI7 1-577): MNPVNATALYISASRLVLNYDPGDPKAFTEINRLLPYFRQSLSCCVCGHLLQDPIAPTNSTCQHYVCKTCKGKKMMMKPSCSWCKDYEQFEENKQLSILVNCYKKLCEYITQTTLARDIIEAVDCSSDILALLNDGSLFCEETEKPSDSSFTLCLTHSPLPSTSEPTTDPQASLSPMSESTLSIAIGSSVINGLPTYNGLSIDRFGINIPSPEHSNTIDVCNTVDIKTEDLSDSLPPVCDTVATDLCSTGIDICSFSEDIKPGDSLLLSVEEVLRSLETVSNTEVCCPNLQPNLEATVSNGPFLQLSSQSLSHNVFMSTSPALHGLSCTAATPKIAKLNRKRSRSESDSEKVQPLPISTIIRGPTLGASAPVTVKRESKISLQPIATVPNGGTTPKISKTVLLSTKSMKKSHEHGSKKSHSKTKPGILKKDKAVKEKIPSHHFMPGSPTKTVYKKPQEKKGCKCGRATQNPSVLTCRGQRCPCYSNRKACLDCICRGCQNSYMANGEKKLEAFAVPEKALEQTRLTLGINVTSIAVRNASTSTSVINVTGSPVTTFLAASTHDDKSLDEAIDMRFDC
The note with it: for percent inhibition: 100 uM.
From the text: as §1

Another experiment has as its target T10, UniProt Q9BSL1 (Homo sapiens, UniProt Q9BSL1).
T10 construct: 200 μL of lysate containing 5 mg/ml proteome was treated with 2 μL of 100× compound stock; endogenous in cells
T10 sequence (Q9BSL1 1-405): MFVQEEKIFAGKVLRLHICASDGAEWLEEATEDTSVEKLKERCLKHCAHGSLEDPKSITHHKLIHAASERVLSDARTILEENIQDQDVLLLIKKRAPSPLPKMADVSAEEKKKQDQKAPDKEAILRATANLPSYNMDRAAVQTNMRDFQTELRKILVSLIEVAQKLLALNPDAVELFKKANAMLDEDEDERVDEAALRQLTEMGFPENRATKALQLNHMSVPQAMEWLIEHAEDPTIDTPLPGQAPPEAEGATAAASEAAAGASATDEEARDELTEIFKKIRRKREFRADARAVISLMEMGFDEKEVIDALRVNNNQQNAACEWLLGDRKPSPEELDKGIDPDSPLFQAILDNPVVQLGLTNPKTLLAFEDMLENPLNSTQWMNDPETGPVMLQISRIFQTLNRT
From the text: as §1

The target of a further experiment is T11, UniProt Q9NPC7 (Homo sapiens, UniProt Q9NPC7).
T11 construct: Cells were resuspended in cold PBS on ice and sonicated with a probe sonicator to achieve lysis; endogenous in cells
T11 sequence (Q9NPC7 1-610): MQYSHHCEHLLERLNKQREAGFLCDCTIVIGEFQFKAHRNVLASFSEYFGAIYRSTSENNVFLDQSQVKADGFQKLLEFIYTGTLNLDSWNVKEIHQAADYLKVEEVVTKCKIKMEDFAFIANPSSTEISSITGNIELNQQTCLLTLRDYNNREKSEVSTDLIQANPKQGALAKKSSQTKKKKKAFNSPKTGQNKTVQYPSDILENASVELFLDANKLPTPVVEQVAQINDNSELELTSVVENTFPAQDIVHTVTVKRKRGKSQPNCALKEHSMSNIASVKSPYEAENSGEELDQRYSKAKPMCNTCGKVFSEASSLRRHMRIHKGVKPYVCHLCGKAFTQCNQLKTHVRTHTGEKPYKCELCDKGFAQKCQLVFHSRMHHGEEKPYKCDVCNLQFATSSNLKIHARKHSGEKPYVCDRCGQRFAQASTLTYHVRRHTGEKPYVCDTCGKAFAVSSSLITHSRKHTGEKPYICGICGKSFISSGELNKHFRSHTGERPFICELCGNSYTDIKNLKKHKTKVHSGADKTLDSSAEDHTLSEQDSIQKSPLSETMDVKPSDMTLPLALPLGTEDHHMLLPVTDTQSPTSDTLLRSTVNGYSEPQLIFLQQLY
From the text: as §1

Where [1] appears, read: 500 uM, read-out: KB02_500 uM_percent_inhibition.
[2] abbreviates: 500 uM, read-out: percent_inhibition.
The mark [3] stands for this setting: 500 uM, read-out: KB05_500 uM_percent_inhibition.
[4] abbreviates: 100 uM, read-out: KB05_100 uM_percent_inhibition.
Where [5] appears, read: read-out: KB05_100 uM_percent_inhibition.

T6 sequence (Q86SE9 whole entry, change not shown): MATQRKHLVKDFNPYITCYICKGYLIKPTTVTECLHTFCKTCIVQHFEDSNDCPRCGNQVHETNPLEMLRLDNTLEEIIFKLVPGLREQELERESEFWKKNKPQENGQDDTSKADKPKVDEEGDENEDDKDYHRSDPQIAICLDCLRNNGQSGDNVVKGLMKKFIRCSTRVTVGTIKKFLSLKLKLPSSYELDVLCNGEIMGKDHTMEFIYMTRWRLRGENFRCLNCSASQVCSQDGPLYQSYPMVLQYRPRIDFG
T5 sequence (Q9H0A6 whole entry, change not shown): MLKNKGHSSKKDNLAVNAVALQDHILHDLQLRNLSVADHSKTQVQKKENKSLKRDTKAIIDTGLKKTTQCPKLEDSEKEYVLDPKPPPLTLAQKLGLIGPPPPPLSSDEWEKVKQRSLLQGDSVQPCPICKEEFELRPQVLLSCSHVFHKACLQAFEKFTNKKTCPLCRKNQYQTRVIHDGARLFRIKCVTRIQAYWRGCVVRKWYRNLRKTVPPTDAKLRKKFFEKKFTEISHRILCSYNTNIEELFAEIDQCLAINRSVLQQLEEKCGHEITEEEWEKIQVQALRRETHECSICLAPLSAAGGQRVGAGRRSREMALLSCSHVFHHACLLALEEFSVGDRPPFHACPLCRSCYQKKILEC
T1 sequence (Q9C026 whole entry, change not shown): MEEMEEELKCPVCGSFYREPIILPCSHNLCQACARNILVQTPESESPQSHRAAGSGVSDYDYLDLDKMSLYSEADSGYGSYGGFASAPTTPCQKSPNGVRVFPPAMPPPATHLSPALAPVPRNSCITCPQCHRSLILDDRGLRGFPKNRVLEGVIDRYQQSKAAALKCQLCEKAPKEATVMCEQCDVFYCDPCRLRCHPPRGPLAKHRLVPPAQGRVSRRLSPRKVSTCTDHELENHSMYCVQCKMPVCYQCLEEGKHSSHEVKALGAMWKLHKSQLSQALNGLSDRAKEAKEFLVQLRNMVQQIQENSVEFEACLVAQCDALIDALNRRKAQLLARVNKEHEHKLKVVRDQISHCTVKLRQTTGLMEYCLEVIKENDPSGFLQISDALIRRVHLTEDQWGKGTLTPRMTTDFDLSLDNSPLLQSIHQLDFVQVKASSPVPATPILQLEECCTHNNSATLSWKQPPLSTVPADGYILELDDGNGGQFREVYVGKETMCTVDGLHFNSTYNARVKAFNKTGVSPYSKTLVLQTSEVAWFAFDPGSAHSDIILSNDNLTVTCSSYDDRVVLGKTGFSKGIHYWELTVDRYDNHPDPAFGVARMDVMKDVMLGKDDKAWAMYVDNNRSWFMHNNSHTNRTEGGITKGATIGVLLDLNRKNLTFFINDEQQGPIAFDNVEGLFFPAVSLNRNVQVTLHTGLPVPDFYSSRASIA
T4 sequence (O14543 whole entry, change not shown): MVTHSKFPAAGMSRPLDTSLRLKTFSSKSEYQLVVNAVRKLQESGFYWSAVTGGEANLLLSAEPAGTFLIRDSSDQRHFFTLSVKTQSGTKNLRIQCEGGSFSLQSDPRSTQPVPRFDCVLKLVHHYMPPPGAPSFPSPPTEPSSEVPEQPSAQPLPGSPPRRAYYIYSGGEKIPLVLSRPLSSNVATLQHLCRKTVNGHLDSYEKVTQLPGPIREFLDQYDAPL
T3 sequence (Q6VVB1 whole entry, change not shown): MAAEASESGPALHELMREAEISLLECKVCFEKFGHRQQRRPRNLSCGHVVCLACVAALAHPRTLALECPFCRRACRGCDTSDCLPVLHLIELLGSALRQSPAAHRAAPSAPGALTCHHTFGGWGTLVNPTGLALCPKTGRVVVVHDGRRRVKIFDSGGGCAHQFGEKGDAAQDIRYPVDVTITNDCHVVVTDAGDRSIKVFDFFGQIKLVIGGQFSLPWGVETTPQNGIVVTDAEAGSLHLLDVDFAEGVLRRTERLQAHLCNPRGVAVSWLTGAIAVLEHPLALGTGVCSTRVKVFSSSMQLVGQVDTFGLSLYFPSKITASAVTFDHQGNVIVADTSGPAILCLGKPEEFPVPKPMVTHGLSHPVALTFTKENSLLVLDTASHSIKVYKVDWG
T8 sequence (Q9UJ41 whole entry, change not shown): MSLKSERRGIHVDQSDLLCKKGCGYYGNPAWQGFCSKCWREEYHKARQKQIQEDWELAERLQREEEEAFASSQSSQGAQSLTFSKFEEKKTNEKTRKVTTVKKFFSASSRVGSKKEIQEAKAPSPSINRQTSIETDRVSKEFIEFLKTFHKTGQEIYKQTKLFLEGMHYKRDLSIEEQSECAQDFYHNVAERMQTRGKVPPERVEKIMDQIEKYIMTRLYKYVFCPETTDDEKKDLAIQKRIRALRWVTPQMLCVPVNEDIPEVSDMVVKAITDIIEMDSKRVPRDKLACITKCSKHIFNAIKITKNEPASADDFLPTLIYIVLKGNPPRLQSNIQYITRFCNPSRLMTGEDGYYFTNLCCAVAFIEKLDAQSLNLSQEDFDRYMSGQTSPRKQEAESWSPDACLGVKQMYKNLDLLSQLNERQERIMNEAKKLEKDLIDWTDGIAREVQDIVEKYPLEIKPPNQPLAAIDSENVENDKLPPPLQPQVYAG
T7 sequence (Q12899 whole entry, change not shown): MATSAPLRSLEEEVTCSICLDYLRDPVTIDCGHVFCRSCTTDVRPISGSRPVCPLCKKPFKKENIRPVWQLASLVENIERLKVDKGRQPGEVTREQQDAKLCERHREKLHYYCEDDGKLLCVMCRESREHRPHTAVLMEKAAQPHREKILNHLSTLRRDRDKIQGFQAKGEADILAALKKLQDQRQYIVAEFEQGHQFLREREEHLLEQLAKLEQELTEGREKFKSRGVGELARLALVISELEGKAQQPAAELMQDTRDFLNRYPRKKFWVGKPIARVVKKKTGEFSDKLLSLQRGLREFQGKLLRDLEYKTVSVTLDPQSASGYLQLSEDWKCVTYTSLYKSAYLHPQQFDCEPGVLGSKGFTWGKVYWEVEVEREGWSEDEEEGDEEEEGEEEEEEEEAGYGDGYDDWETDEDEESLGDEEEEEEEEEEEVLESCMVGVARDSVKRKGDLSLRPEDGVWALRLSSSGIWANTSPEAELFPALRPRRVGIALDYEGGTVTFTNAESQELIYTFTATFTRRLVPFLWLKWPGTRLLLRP

Turning to `COc1ccc2c(c1)CCCN2C(=O)CCl` [KB02], the “KB02_500 uM_percent_inhibition” value on UniProt Q9C026 (500 uM) turned out to be 69%; on UniProt Q9BWF2 (500 uM) it was 52%. For the same molecule, the inhibition at 500 µM turned out to be 64% on UniProt Q9C026 (setting [1]), 36% at UniProt Q9BWF2 (setting [1]), 9% at UniProt Q6VVB1 (read-out: KB02_500 uM_percent_inhibition) and 42% on UniProt Q9H0A6 (setting [2]). Moreover, the inhibition at 100 µM at UniProt Q9BWF2 (100 uM, read-out: KB02_100 uM_percent_inhibition) came out at 10%; on UniProt O14543 (read-out: percent_inhibition) it was 40%; at UniProt Q9H0A6 (100 uM, read-out: percent_inhibition) it was 44%.
Take `C=CC(=O)N(c1ccccc1)c1ccc(Br)cc1` [KB05]: the “KB05_500 uM_percent_inhibition” value on UniProt Q9BWF2 (500 uM) was determined as 29%; on UniProt Q86SE9 (500 uM) it was 58%; at UniProt Q9BSL1 (500 uM), 57%. In addition, the inhibition at 500 µM at UniProt Q9BWF2 (setting [3]) amounted to 22%; at UniProt Q86SE9 (setting [3]), 53%; at UniProt Q6VVB1 (read-out: KB05_500 uM_percent_inhibition) it was 15%; at UniProt Q9BSL1 (setting [3]), 48%; on UniProt Q9H0A6 (setting [2]), 16%; at UniProt Q9NPC7 (500 uM, read-out: percent inhibition) it was 58%. For the same molecule, the inhibition at 100 µM is 9% at UniProt Q86SE9 (setting [4]); 28% at UniProt Q12899 (setting [5]); 33% at UniProt Q9UJ41 (setting [5]); 15% on UniProt Q9HCI7 (read-out: percent inhibition); 36% at UniProt Q9BSL1 (setting [4]); 1% on UniProt Q9NPC7 (100 uM, read-out: percent inhibition). The molecule further registered a percent inhibition on UniProt Q9HCI7 of 11%. The molecule also returned a percent_inhibition on UniProt Q9H0A6 (500 uM) of 10%.
Consider `O=C(CCl)Nc1cc(C(F)(F)F)cc(C(F)(F)F)c1` [KBO3], for which the “KB03_100 uM_percent_inhibition” value on UniProt Q9C026 (100 uM) is given as 13%; at UniProt Q86SE9 (100 uM) it was 25%; at UniProt Q12899 (100 uM), 56%; on UniProt Q9UJ41 (100 uM), 20%; at UniProt Q9BSL1 (100 uM), 36%. Moreover, the figures for the percent inhibition on UniProt Q9HCI7 and at UniProt Q9NPC7 (100 uM) were 49% and 30%, respectively. The molecule further yielded a percent_inhibition at UniProt O14543 (100 uM) of 91%.
